What was measured:
[1] = tested on: 5 dpf zebrafish larvae; test: Zebrafish locomotor tracking assay; type: in vivo, Zebrafish (Danio rerio); conditions: for swimming (locomotor) behavior: 100 μM agonist, 5 dpf larvae, 300 s tracking
Method: Wild-type zebrafish of the AB line were utilized for all behavioral experiments. Adult and larval zebrafish were maintained on a 14 hr/10 hr light/dark cycle. They were maintained and bred using standard procedure https://zfin.org/zf_info/zfbook/zfbk.html. Larval zebrafish were reared until 5 days post-fertilization (dpf) in E3 media https://zfin.org/zf_info/zfbook/chapt1/1.3.html in an incubator at 28 °C. E3 media was changed daily, and healthy embryos were kept for experiments.
In the behavioral experiments, one 5 dpf zebrafish was placed in 250 μL of fish media per well of a 96-well plate (UNIPLATE Collection and Analysis Microplate, 96-Well 7701-1651). For each experimental condition, a group of 8 larvae (1 column) was used. Larvae were acclimated to the wells for 300 seconds after which an 8-channel pipette was used to simultaneously dispense 250 μL of 2x concentration of the TRPA1 agonist ASP7663 in fish media into each well. Locomotor activity was subsequently tracked and quantified (as distance travelled) for 300 additional seconds utilizing the Zebrabox system from ViewPoint Behavior Technology (Civrieux, France). For TRPA1 antagonist testing, larvae in the 96-well plate were pretreated with 1x concentration of antagonist in 250 μL E3 media for 20 minutes. Then, 250 μL of 2x TRPA1 agonist was added directly to this solution, and the resulting behavior was recorded as described above.
(§1) All data are presented as means ± standard error of the mean (SEM). For our in vitro statistical analysis, AUC of calcium influx (RFU) was measured to plot dose-response curves, which were further analyzed by nonlinear regression analysis. Mean RFU of the first 10 seconds was used as a baseline of the AUC. EC50 values of the dose-response curves were further used to plot Schild curves, and the curves were analyzed with linear regression analysis. For the mice von Frey test, mechanical thresholds were analyzed with two-way ANOVA followed by a Bonferonni test for multiple comparison analysis. For the zebrafish behavior test, the data from the first five seconds following drug administration were excluded, as zebrafish displacement during that period was highly influenced by liquid dispensing. AUC of all curves were measured and analyzed by one-way ANOVA. The post-hoc analysis was conducted with the Tukey’s or Dunnett’s multiple comparisons unless it stated otherwise. A value of y = 0 in the graph was used as a baseline of the AUC. For our time-course average displacement graph, we used 2nd degree polynomial smoothing for a better representation; however, we used data before smoothing for all statistical analysis and quantification. All in vitro and in vivo data were evaluated using GraphPad Prism 7 (GraphPad Software, La Jolla, CA) unless it stated otherwise.

[2] = molecular target: T1, mouse TRPA1 (mTRPA1) (Mus musculus, UniProt Q8BLA8); test: FLIPR calcium signaling assay in mTRPA1-transfected HEK293 cells; type: cell-based; conditions: for EC50: read-out: EC50 (potency in µM)
T1 construct: host or cells: HEK293 (ATCC CRL-1573), transient transfection
T1 sequence (Q8BLA8 whole entry): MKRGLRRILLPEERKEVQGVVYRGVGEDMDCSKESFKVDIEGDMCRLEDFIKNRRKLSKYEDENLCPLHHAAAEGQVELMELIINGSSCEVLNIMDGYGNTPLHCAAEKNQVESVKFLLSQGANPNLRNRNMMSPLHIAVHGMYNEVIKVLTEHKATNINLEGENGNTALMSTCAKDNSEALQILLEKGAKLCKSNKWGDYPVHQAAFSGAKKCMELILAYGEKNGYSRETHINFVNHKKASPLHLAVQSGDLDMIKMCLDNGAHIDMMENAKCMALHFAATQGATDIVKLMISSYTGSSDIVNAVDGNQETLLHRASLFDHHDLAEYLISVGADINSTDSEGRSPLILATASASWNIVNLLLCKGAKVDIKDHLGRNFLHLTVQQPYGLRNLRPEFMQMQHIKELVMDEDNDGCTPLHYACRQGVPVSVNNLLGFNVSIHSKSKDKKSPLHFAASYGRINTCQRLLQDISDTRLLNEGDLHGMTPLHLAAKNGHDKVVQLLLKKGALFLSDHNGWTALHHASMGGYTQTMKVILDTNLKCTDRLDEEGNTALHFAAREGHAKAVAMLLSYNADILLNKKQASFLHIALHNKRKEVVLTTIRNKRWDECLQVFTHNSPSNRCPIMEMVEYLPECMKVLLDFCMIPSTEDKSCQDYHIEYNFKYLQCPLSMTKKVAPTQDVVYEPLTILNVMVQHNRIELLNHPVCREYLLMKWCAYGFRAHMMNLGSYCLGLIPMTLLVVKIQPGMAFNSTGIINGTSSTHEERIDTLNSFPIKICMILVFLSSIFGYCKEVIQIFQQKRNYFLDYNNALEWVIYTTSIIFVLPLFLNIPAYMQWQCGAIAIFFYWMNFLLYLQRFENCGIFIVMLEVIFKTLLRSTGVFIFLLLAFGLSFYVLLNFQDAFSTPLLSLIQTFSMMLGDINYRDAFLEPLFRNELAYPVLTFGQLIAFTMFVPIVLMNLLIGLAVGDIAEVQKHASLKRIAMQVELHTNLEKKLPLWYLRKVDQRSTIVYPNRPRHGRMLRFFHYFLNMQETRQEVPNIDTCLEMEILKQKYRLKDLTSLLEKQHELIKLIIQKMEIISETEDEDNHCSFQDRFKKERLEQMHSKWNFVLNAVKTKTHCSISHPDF
Method: HEK293 cells (#CRL-1573, ATCC, VA, USA) were cultured in DMEM media (#11995-065, Sigma-Aldrich, MO, USA) with 10% Fetal Bovine Serum (#F0926-500ML, Thermo Fisher, MA, USA). The cells were maintained in a 37 °C incubator with consistent 5% CO2. They were seeded in a clear 6 well flat bottom cell culture plates (#07-200-83, Corning ®, Thermo Fisher) with 500,000 cells/2 ml/well for transfection, in serum-free Opti-MEM (#31985070, Gibco®, Thermo Fisher). These cells were transfected with pcDNA3.1-mTRPA1 (#MR227099, OriGene, MD, USA), pcDNA3.1-zTRPA1a, or pcDNA3.1-zTRPA1b (a gift from Dr. David Prober) using X-tremeGENE^TM 9 (#6365809001, Sigma-Aldrich). After 24 hours, the transfected cells were dislodged with trypsin, resuspended in Opti-MEM, and seeded 25,000 cells/25 µl/well in 384-well black polystyrene microplates (#82051-296, VWR, PA, USA) for testing calcium signaling the following day. Experiments were carried out with the approval of the Institutional Biohazard Committee (#13-013-16).
Twenty-five µl calcium sensitive Fluorescent Imaging Plate Reader (FLIPR) Calcium 6 assay dye (#R8190, Molecular Devices, CA, USA) was added to each well of a 384-well plate containing HEK293 cells transiently expressing mTRPA1, zTRPA1a, and zTRPA1b, respectively. The cells were incubated for an hour prior to the recording of intracellular calcium levels in a FlexStation3 Multi-Mode Microplate Reader (#R8190, Molecular Devices) as previously described. All compounds were diluted in calcium buffer made with 1x HBSS (#14025-092, Thermo Fisher), 20 mM HEPES (#15630-080, Thermo Fisher), and 2.5 mM Probenecid (#P8761, Sigma-Aldrich). For agonist studies, ASP7663 (#5178, Tocris, Bristol, UK) was diluted in 1% DMSO-containing calcium buffer at desired concentrations and was added during the recording. The TRPA1 antagonists HC-030031 (#2896, Tocris), TCS-5861528 (#3938, Tocris), and A-967079 (#4716, Tocris) were diluted in calcium buffer, and 5 µl of 10x solutions were added 10 minutes prior to the recording. The same amount of DMSO (1%) was added to all control groups to maintain similar DMSO levels with the experimental groups. During the assay, the cells were challenged by a 5x ASP7663 solution or 1% DMSO solution at the 20 seconds time point, and both solutions were diluted in calcium buffer. Relative fluorescence units (RFU) were measured for 120 seconds period by the Flexstation. Area under the curve (AUC) was further evaluated from individual calcium influx data (Supplemental Figs 2 and 4) to plot does-response curve of antagonists. For each specific antagonist concentration we plotted Log(dose ratio-1) against the antagonist concentration in a Schild plot. The dose ratio (A’/A) equals the EC50 of the agonist ([…]) in the presence of a concentration of the antagonist (A’) divided by the EC50 of the agonist in the absence of antagonist (A). The x-intercept of the Schild plot was used to identify the antagonist-receptor affinity (pA2).
as §1, with “A value of y = 0 in the graph was used as a baseline of the AUC. For our time-course average displacement graph, we used 2nd degree polynomial smoothing for a better representation; however, we used data before smoothing for all statistical analysis and quantification. All in vitro and in vivo data were evaluated using GraphPad Prism 7 (GraphPad Software, La Jolla, CA) unless it stated otherwise.” left out

[3] = agonist calcium influx, AUC of RFU, mTRPA1-transfected HEK293
[4] = Schild plot against ASP7663-induced calcium influx, mTRPA1

Row | Structure (SMILES) | swimming (locomotor) behavior [1] | EC50 [2, 3] | swimming behavior with antagonist alone ([1]; 10 μM HC-030031 alone vs E3) | inhibition of ASP7663 (100 μM)-mediated nocifensive locomotor behavior ([1]; 10 μM antagonist pre-incubation 20 minutes) | pA2 [2, 4] | pA2 expressed in µM [2, 4] | locomotor activity ([1]; ASP7663 higher concentration 31.6 and 100 μM) | locomotor activity ([1]; ASP7663 low doses 3.16 and 10 μM) | persistence of calcium influx ([2]; 316 µM, up to 120 seconds, compared to AITC) | pEC50 [2, 3] | potency weaker than previously reported (fold) ([2]; versus similar FLIPR-based calcium assay)
1 | C=CCN=C=S [AITC, allyl isothiocyanate] | elicited an acute and rapid swimming behavior immediately upon treatment | 5.8 µM |  |  |  |  |  |  |  |  | 
2 | CC(C)c1ccc(NC(=O)Cn2cnc3c2c(=O)n(C)c(=O)n3C)cc1 [HC-030031] |  |  | increased swimming behavior over baseline | inhibited the nocifensive locomotor behavior | 5.65 ± 0.2 | 2.2 µM |  |  |  |  | 
3 | CC(C)CN1C(=O)/C(=C/C(=O)O)c2cccc(F)c21 [ASP7663] | induced a slower and more sustained swimming behavior | 6.8 µM |  |  |  |  | hyperlocomotor activity | induced hypolocomotion | more persistent calcium influx compared to AITC | 5.16 ± 0.16 | ~ 10 fold

Source: article PMC6382835, “A critical evaluation of TRPA1-mediated locomotor behavior in zebrafish as a screening tool for novel anti-nociceptive drug discovery” (Scientific Reports, 2019)
